According to the supplement of paper PMC4858399:

How the values were obtained:
[1] = test system: Caenorhabditis elegans N2; assay: lowest effective concentration for larval growth inhibition (size below effect threshold); higher = less potent; details: exposure time 48 h
How it was run: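 Chemical exposure ran for 48 h at 20°C: 50 C. elegans N2 L1 larvae per 96-well in K-medium with killed bacteria, 1% DMSO and 0.5, 1, 5, 10, 50, 100 or 200 µM chemical. Extinction of each worm, read as size on the Biosort, was log-transformed and averaged by well. The lowest effective concentration is the first dose whose plate-adjusted mean size is below a fixed value and remains so at all higher doses; the value is 5.665.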

[2] = test system: Caenorhabditis elegans N2; assay: mean nematode size ln(EXT) after 48 h, plate-adjusted (DMSO control set to 6) (ln(EXT), control-adjusted); higher = larger nematodes / less growth inhibition; details: exposure time 48 h
How it was run: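 In K-medium with killed OP50, 1% DMSO and 0.5–200 µM chemical, synchronised N2 L1 larvae of C. elegans (50 per well) grew for 48 h at 20°C. Extinction was read for every worm on the Biosort, with debris removed by a growth model. Natural-log values averaged per well gave mean size, which was corrected per plate by subtracting the vehicle control mean and adding 6.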

Row | Compound | lowest effective concentration [1] | mean nematode size ln(EXT) (ln) ([2]; 0.5 µM) | mean nematode size ln(EXT) (ln) ([2]; 1 µM) | mean nematode size ln(EXT) (ln) ([2]; 5 µM) | mean nematode size ln(EXT) (ln) ([2]; 10 µM) | mean nematode size ln(EXT) (ln) ([2]; 50 µM) | mean nematode size ln(EXT) (ln) ([2]; 100 µM) | mean nematode size ln(EXT) (ln) ([2]; 200 µM)
1 | CCCCCOC(C)=O [Pentyl acetate] | > 200 µM | 5.91 | 5.91 | 5.94 | 6 | 5.89 | 5.89 | 5.7
2 | CC(=O)OC[C@H]1O[C@@](COC(C)=O)(O[C@H]2O[C@H](COC(C)=O)[C@@H](OC(C)=O)[C@H](OC(C)=O)[C@H]2OC(C)=O)[C@@H](OC(C)=O)[C@@H]1OC(C)=O [Sucrose octaacetate] | > 200 µM | 5.78 | 5.75 | 5.76 | 5.75 | 5.72 | 5.75 | 5.73
3 | CCNc1nc(Cl)nc(NC(C)(C)C#N)n1 [Cyanazine] | > 200 µM | 5.89 | 5.95 | 5.88 | 6.03 | 6.26 | 6.42 | 5.86
4 | O=C(O)CC(O)(CC(=O)O)C(=O)O [Citric acid] | > 200 µM | 5.85 | 6.03 | 6.03 | 5.9 | 5.99 | 5.63 | 5.73
5 | CC(=O)C1C(=O)C=C(C)OC1=O (configuration not stated) [Sodium dehydroacetate] | > 200 µM | 5.99 | 5.95 | 5.97 | 5.86 | 5.94 | 5.93 | 5.72
6 | CCC(C)(CC)c1cc(NC(=O)c2c(OC)cccc2OC)on1 [Isoxaben] | > 200 µM | 5.88 | 5.93 | 6.01 | 6.02 | 5.92 | 6.03 | 5.93
7 | Cc1ccc(N=C=O)cc1N=C=O [Toluene-2,4-diisocyanate] | > 200 µM | 5.73 | 5.8 | 5.73 | 5.78 | 5.7 | 5.61 | 5.67
8 | CCCCCCCC(=O)O [Octanoic acid] | > 200 µM | 6 | 5.81 | 5.92 | 5.8 | 5.89 | 5.84 | 5.78
9 | CCC(C)OC(=O)N1CCCCC1CCO (configuration not stated) [Icaridin] | > 200 µM | 5.45 | 5.77 | 5.76 | 6.03 | 5.43 | 5.79 | 5.97
10 | Cc1nc(-c2ccccn2)ncc1C(=O)Nn1cc(C)c2cc(F)ccc21 | > 200 µM | 5.82 | 5.84 | 5.9 | 5.83 | 5.73 | 5.77 | 5.86
11 | ClC(Cl)c1ccccc1 [Benzal chloride] | > 200 µM | 5.81 | 5.83 | 5.86 | 5.78 | 5.85 | 5.89 | 5.68
12 | C/C(=N\C#N)N(C)Cc1ccc(Cl)nc1 [Acetamiprid] | > 200 µM | 5.78 | 5.98 | 6.03 | 6.03 | 6.16 | 6.02 | 5.96
13 | O=C(O)c1c(Cl)ccc2cc(Cl)cnc12 [Quinclorac] | > 200 µM | 5.97 | 6.03 | 6.03 | 5.99 | 5.97 | 6.07 | 5.76
14 | Cc1cccc([N+](=O)[O-])c1C [1,2-Dimethyl-3-nitrobenzene] | > 200 µM | 5.81 | 5.89 | 5.83 | 5.77 | 5.86 | 5.83 | 5.79
